According to paper PMC12635268, “Novel antimicrobial peptides and peptide-microbiome crosstalk in Appalachian salamander skin” (NPJ Biofilms and Microbiomes, 2025):
Read-outs that look alike come from different tables or passages of the source. Ends that are not written are not given here.

How the values were obtained:
[1] = tested on: Batrachochytrium dendrobatidis Bd-GPL strain JEL404; conditions: slope of growth, positive = inhibition, negative = no inhibition
Procedure: Bd-peptide challenge assays were conducted with the crude peptides extracted from the salamander skin secretions and with the 20 synthesized peptides. We followed methods by Pereria et al.[49] to conduct assays with the crude peptides using Bd-GPL strain JEL404 at 1 × 10^6 zoospores/mL. Briefly, skin peptide samples were pooled together based on species-site-injection (Table 1). Skin peptides samples were serially diluted 2-fold in MilliQ (Ultrapure Type 1) water and assayed at a concentration of 2.35–75 μg/mL based on starting peptide concentration available. For synthesized peptides, we conducted assays from 15.6 to 500 μg/ml. In both assays, we quantified percent inhibition of each well using slope of growth[90] in which positive values indicate inhibition and negative values indicate no inhibition.

A. baumannii ATCC 17978 = assay: microbe, parasite or virus in culture
Procedure: (§1) Antimicrobial susceptibility testing of the 20 synthesized peptides against 17 bacterial strains of clinical relevance in the ESKAPEE panel was conducted using minimum inhibitory concentration (MIC) assays following the broth microdilution method outlined by Parker et al.[91]. The ESKAPEE panel is comprised of fourteen American Type Culture Collection (ATCC) strains and three Multidrug Resistant Organism Repository and Surveillance Network (MRSN) bacterial strains. These strains represent at least one drug-susceptible strain and one drug-resistant strain for each bacterium to assess drug efficacy across various resistance mechanisms. This panel is comprised of the following bacterial species and strains: E. faecium (ATCC 19434, ATCC 49224), S. aureus (ATCC 25923, ATCC 43300), K. pneumoniae (ATCC 700603, ATCC 13883, MRSN 1320), A. baumannii (ATCC 17978, ATCC 19606, MRSN 959), P. aeruginosa (ATCC 15692, ATCC 27853, MRSN 5519), E. cloacae (ATCC 13047, ATCC 35549), and E. coli (ATCC 35218, ATCC 43888). Bacteria were grown in cation-adjusted Mueller-Hinton broth (CAMHB) to achieve a final inoculum of 1 × 10⁵ CFU/mL. CAMHB is selected for its batch-to-batch reproducibility, low levels of antimicrobial inhibitors, and ability to support the growth of most bacterial pathogens.
(§2) Briefly, lyophilized peptides were dissolved in 0.2% TFA + 0.4% BSA in water to 2.56 mg/mL, ultrasonicated for 20 min, diluted 10-fold into CAMHB, and then serially diluted 2-fold in 0.02% TFA + 0.04% BSA in CAMHB and assayed at a concentration of 0.25 to 128 μg/mL. Assays were set up using the Tecan Freedom EVO liquid handling robot and software (Tecan, Switzerland) with 50 μL of bacterial inoculum and 50 μL of peptide transferred into round-bottom 96-well microtiter plates. Each plate assay was performed in duplicate and incubated at 37 °C for 20 h without agitation. Bacterial growth was assessed using the BIOMIC V3 Image Analysis system (Giles Scientific, USA) and the MIC values were determined visually according to the Clinical and Laboratory Standards Institute (CLSI) guidelines.

A. baumannii ATCC 19606 = assay: microbe, parasite or virus in culture
Procedure: as §1, §2

E. cloacae ATCC 13047 = assay: microbe, parasite or virus in culture
Procedure: as §1, §2

E. cloacae ATCC 35549 = assay: microbe, parasite or virus in culture
Procedure: as §1, §2

E. coli ATCC 35218 = assay: microbe, parasite or virus in culture; conditions: E. coli 35218; Week 1 (12/6/2023)
Procedure: as §1, §2

E. coli ATCC 43888 = assay: microbe, parasite or virus in culture
Procedure: as §1, §2

E. faecium ATCC 19434 = assay: microbe, parasite or virus in culture
Procedure: as §1, §2

E. faecium ATCC 49224 = assay: microbe, parasite or virus in culture
Procedure: as §1, §2

K. pneumoniae ATCC 13883 = assay: microbe, parasite or virus in culture
Procedure: as §1, §2

[2] = tested on: K. pneumoniae ATCC 700603; assay: microbe, parasite or virus in culture; conditions: K. pneumoniae 700603; Week 1 (12/6/2023)
Procedure: as §1, §2

P. aeruginosa ATCC 27853 = assay: microbe, parasite or virus in culture
Procedure: as §1, §2

P. aeruginosa MRSN 5519 = assay: microbe, parasite or virus in culture
Procedure: as §1, §2

S. aureus ATCC 25923 = assay: microbe, parasite or virus in culture
Procedure: as §1, §2

S. aureus ATCC 43300 = assay: microbe, parasite or virus in culture; conditions: S. aureus 43300; Week 1 (12/6/2023)
Procedure: as §1, §2

P. aeruginosa PA01 (Si) = assay: microbe, parasite or virus in culture; format: cell-based
Text: Supplement 41522_2025_837_MOESM13_ESM.xlsx, sheet "Table_S13_ESKAPEE-MIC" | column: Bacterial MIC (µg/mL)

A. baumannii 5075 = conditions: Week 1 (12/6/2023)
[3] = set-up: method as in Biomatik (vendor); conditions: 1.0 mg peptide in 1.0 ml solvent; peptides synthesized by Biomatik; ref Biomatik (vendor); cited from earlier work
[4] = synthesized peptide 15.625 μg/mL
[5] = synthesized peptide 31.25 μg/mL
[6] = A. baumannii 17978, Week 1 (12/6/2023)
[7] = A. baumannii 19606, Week 1 (12/6/2023)
[8] = E. cloacae 13047, Week 1 (12/6/2023)
[9] = E. cloacae 35549, Week 1 (12/6/2023)
[10] = E. coli 43888, Week 1 (12/6/2023)
[11] = E. faecium 19434, Week 1 (12/6/2023)
[12] = E. faecium 49224, Week 1 (12/6/2023)
[13] = K. pneumoniae 13883, Week 1 (12/6/2023)
[14] = P. aeruginosa 27853, Week 1 (12/6/2023)
[15] = P. aeruginosa 5519, Week 1 (12/6/2023)
[16] = S. aureus 25923, Week 1 (12/6/2023)
[17] = P. aeruginosa PA01 (Si), not typical ESKAPEE strain, Week 1 (12/6/2023)
[18] = K. pneumoniae 4640, Week 1 (12/6/2023)

| Sequence | Bd inhibition score (percent inhibition), mean [1, 4] [%] | Bd inhibition score (percent inhibition), mean [1, 5] [%] | Bd inhibition score (percent inhibition), mean ([1]; synthesized peptide 62.5 μg/mL) [%] | Bd inhibition score (percent inhibition), mean ([1]; synthesized peptide 125 μg/mL) [%] | Bd inhibition score (percent inhibition), mean ([1]; synthesized peptide 250 μg/mL) [%] | Bd inhibition score (percent inhibition), mean ([1]; synthesized peptide 500 μg/mL) [%] | Bacterial MIC (A. baumannii ATCC 17978; [6]) [µg/mL] | Bacterial MIC (A. baumannii ATCC 19606; [7]) [µg/mL] | Bacterial MIC (E. cloacae ATCC 13047; [8]) [µg/mL] | Bacterial MIC (E. cloacae ATCC 35549; [9]) [µg/mL] | Bacterial MIC (E. coli ATCC 35218) [µg/mL] | Bacterial MIC (E. coli ATCC 43888; [10]) [µg/mL] | Bacterial MIC (E. faecium ATCC 19434; [11]) [µg/mL] | Bacterial MIC (E. faecium ATCC 49224; [12]) [µg/mL] | Bacterial MIC (K. pneumoniae ATCC 13883; [13]) [µg/mL] | Bacterial MIC [2] [µg/mL] | Bacterial MIC (P. aeruginosa ATCC 27853; [14]) [µg/mL] | Bacterial MIC (S. aureus ATCC 43300) [µg/mL] | Bacterial MIC (A. baumannii 5075) [µg/mL] | Suggest solvent (solubility) [3] | further results |
| --- | --- | --- | --- | --- | --- | --- | --- | --- | --- | --- | --- | --- | --- | --- | --- | --- | --- | --- | --- | --- | --- |
| KGPRPPGFSPFR [PrMb-Eb7] | -125.322 | -116.924 | -107.962 | -145.651 | -143.314 | -136.81 | >128.000 | >128.000 | >128.000 | >128.000 | >128.000 | >128.000 | >128.000 | >128.000 | >128.000 | >128.000 | >128.000 | >128.000 | >128.000 | 1.0mg peptide soluble in 1.0ml H2O | Bacterial MIC (P. aeruginosa MRSN 5519; [15]): >128.000 µg/mL; Bacterial MIC (S. aureus ATCC 25923; [16]): >128.000 µg/mL; Bacterial MIC (P. aeruginosa PA01 (Si); [17]): >128.000 µg/mL; Bacterial MIC (K. pneumoniae 4640; [18]): >128.000 µg/mL |
| LHTKRVQNKKKNGNRRQTIGKKCTAGFICKKEYLKLNPGIYSVIHD (cysteines drawn unpaired) [Tr-Eb1] |  |  |  |  |  |  |  |  |  |  | >128.000 |  |  |  |  | >128.000 |  | >128.000 | >128.000 | 1.0mg peptide soluble in 1.0ml DMSO | Bacterial MIC (A. baumannii ATCC 17978; ATCC 17978, 20 h): >128.000 µg/mL; Bacterial MIC (A. baumannii ATCC 19606; ATCC 19606, 20 h): >128.000 µg/mL; Bacterial MIC (E. cloacae ATCC 13047; ATCC 13047, 20 h): >128.000 µg/mL; Bacterial MIC (E. cloacae ATCC 35549; ATCC 35549, 20 h): >128.000 µg/mL; Bacterial MIC (E. coli ATCC 43888; ATCC 43888, 20 h): >128.000 µg/mL; Bacterial MIC (E. faecium ATCC 19434; ATCC 19434, 20 h): >128.000 µg/mL; Bacterial MIC (E. faecium ATCC 49224; ATCC 49224, 20 h): >128.000 µg/mL; Bacterial MIC (K. pneumoniae ATCC 13883; ATCC 13883, 20 h): >128.000 µg/mL; Bacterial MIC (P. aeruginosa ATCC 27853; ATCC 27853, 20 h): >128.000 µg/mL; Bacterial MIC (P. aeruginosa MRSN 5519; MRSN 5519, 20 h): >128.000 µg/mL; Bacterial MIC (S. aureus ATCC 25923; ATCC 25923, 20 h): >128.000 µg/mL; Bacterial MIC (P. aeruginosa PA01 (Si); Si): >128.000 µg/mL; Bacterial MIC (K. pneumoniae 4640; 4640, 20 h): >128.000 µg/mL |
| NRKGPRPPGFSPFR [PrAd-Eb9] | -120.796 | -129.548 | -134.776 | -156.474 | -160.396 | -188.605 | >128.000 | >128.000 | >128.000 | >128.000 | >128.000 | >128.000 | >128.000 | >128.000 | >128.000 | >128.000 | >128.000 | >128.000 | >128.000 | 1.0mg peptide soluble in 1.0ml H2O | Bacterial MIC (P. aeruginosa MRSN 5519; [15]): >128.000 µg/mL; Bacterial MIC (S. aureus ATCC 25923; [16]): >128.000 µg/mL; Bacterial MIC (P. aeruginosa PA01 (Si); [17]): >128.000 µg/mL; Bacterial MIC (K. pneumoniae 4640; [18]): >128.000 µg/mL |
